Reference: patent US7411090B2, “Process for the recovery of citric acid” (A.E. Staley Manufacturing Company, priority 2003, dated 2008)

Experiment: Extraction into non-amine (NA) solvent from solutions containing both glucose and citric acid
Assay type: physicochemical
Conditions: selectivity decreases with increase in distribution of citric into solvent phase
Text: The citric/glucose selectivity decreases with the increase in the distribution of citric into the solvent phase.

For `O=C(O)CC(O)(CC(=O)O)C(=O)O` [citric acid], the “citric/glucose selectivity of extraction into the NA solvent” value was “selectively extracted”.
